Data as given in ChEMBL document CHEMBL1153649, “Peptidyl epoxides as inhibitors of -chymotrypsin: Remarkable change from irreversible to reversible competitive inhibitor as a consequence of the improvement of binding affinity” (Bioorg Med Chem Lett, 1996).

What was measured:
Chymotrypsinogen B [1] = biological target: T1, Chymotrypsinogen B (Homo sapiens, UniProt P17538); assay: Compound was tested for inhibitory activity against alpha-chymotrypsin
Chymotrypsinogen B [2] = biological target: T1, Chymotrypsinogen B; assay: Inhibitory potency was evaluated against alpha-chymotrypsin

T1 sequence (P17538 34-164 limits assumed, other chains not shown): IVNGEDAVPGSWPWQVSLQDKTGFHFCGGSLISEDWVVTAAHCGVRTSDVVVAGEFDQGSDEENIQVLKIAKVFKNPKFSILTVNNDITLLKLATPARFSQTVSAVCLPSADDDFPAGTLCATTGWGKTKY
T1 sequence (P17538 167-263 limits assumed, other chains not shown): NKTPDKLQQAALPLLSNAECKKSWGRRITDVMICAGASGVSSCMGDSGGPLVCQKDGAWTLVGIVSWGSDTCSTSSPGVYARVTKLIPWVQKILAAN

Row | Ki (Chymotrypsinogen B [1]) [µM] | K inact/Ki (Chymotrypsinogen B [2]) [M⁻¹ s⁻¹] | Compound
1 | 820 |  | O=C(N[C@@H](Cc1ccccc1)[C@@H]1CO1)C1CCCN1C(=O)c1ccccc1 (single isomer, unassigned)
2 |  | 27 | COC(=O)[C@@H](Cc1ccccc1)[C@@H]1CO1 (single isomer, unassigned)
